target: T1, human CRF receptors (Homo sapiens, UniProt P34998); test: standard radioligand binding assay: displacement of radiolabeled CRF ligand from the CRF receptor; details: Table 7 title: Ki ≤ 250 nM; cells stably transfected with human CRF receptors; [125I]tyrosine-ovine CRF ~200 pM; 2 hours at 22° C.
T1 construct: expressed in transfected cells
T1 sequence (P34998 24-415): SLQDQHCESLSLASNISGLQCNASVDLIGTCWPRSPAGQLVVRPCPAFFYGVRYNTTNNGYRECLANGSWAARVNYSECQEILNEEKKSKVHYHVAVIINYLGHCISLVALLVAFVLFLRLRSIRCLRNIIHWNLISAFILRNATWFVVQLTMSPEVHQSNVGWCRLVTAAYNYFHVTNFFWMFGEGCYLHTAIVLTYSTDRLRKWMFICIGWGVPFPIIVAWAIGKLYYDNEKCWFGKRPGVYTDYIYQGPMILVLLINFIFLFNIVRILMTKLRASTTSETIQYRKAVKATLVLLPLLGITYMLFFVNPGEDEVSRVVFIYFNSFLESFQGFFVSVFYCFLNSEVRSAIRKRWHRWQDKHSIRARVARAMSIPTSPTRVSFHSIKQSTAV
Source text: The effectiveness of a compound as a CRF receptor antagonist may be determined by various assay methods. Suitable CRF antagonists of this invention are capable of inhibiting the specific binding of CRF to its receptor and antagonizing activities associated with CRF. A compound of structures I through VI may be assessed for activity as a CRF antagonist by one or more generally accepted assays for this purpose, including (but not limited to) the assays disclosed by DeSouza et al. (J. Neuroscience 7:88, 1987) and Battaglia et al. (Synapse 1:572, 1987). […] CRF receptor affinity may be determined by binding studies that measure the ability of a compound to inhibit the binding of a radiolabeled CRF (e.g., [^125 I]tyrosine-CFR) to its receptor (e.g. receptors prepared from rat cerebral cortex membranes). The radioligand binding assay described by DeSouza et al. (supra, 1987) provides an assay for determining a compound's affinity for the CRF receptor. Such activity is typically calculated from the IC50 as the concentration of a compound necessary to displace 50% of the radiolabeled ligand from the receptor, and is reported as a "Ki " value calculated by the following equation: [formula] where L=radioligand and KD =affinity of radioligand for receptor (Cheng and Prusoff, Biochem. Pharmacol. 22:3099, 1973).
Compounds were evaluated for binding activity to the CRF receptor by a standard radioligand binding assay as generally described by DeSouza et al. (J. Neurosci. 7:88-100, 1987). By utilizing various radiolabeled CRF ligands, the assay may be used to evaluate the binding activity of the compounds of the present invention with any CRF receptor subtype. Briefly, the binding assay involves the displacement of a radiolabeled CRF ligand from the CRF receptor.
More specifically, the binding assay was performed in 1.5 ml Eppendorf tubes using approximately 1×10^6 cells per tube stably transfected with human CRF receptors. Each tube received about 0.1 ml of assay buffer (e.g., Dulbecco's phosphate buffered saline, 10 mM magnesium chloride, 20 μM bacitracin) with or without unlabeled sauvagine, urotensin I or CRF (final concentration, 1 μM) to determine nonspecific binding, 0.1 ml of [^125 ] tyrosine--ovine CRF (final concentration ~200 pM or approximately the KD as determined by Scatchard analysis) and 0.1 ml of a membrane suspension of cells containing the CRF receptor. The mixture was incubated for 2 hours at 22° C. followed by the separation of the bound and free radioligand by centrifugation. Following two washes of the pellets, the tubes were cut just above the pellet and monitored in a gamma counter for radioactivity at approximately 80% efficiency. All radioligand binding data was analyzed using the non-linear least-square curve-fitting program LIGAND of Munson and Rodbard (Anal. Biochem. 107:220, […]).
Binding activity corresponds to the concentration (nM) of the compound necessary to displace 50% of the radiolabeled ligand from the receptor.

Ki, ≤ 0.25 µM:
CCCN(c1nccc(-c2c(OC)cc(OC)cc2OC)n1)C(C1CC1)C1CC1 [II-22, 2-(N-dicyclopropylmethyl-N-propylamino)-4-(2',4',6'-trimethoxyphenyl)pyrimidine]
CCCN(c1nccc(-c2c(OC)cccc2OC)n1)C(C1CC1)C1CC1 [II-23, 2-(N-dicyclopropylmethyl-N-propyl)-4-(2',6'-dimethoxyphenyl)pyrimidine]
CCCN(c1nccc(-c2c(OC)cc(Cl)cc2OC)n1)C(C1CC1)C1CC1 [II-35]
CCCN(c1ncc(C)c(-c2c(OC)cc(OC)cc2OC)n1)C(C1CC1)C1CC1 [II-25]
CCCN(c1nc(N)nc(-c2ccc(Cl)cc2Cl)n1)C(C1CC1)C1CC1 [IV-7]
CCCN(c1ncnc(-c2ccc(Cl)cc2Cl)n1)C(C1CC1)C1CC1 [IV-8, 2-(N-dicyclopropylmethyl-N-propylamino)-4-(2',4'-dichlorophenyl)triazine]
CCCN(c1ncc(C)c(-c2ccc(OC)cc2OC)n1)C(C1CC1)C1CC1 [II-39]
CCCN(c1nccc(-c2c(Cl)cc(Cl)cc2Cl)n1)C(C1CC1)C1CC1 [II-11, 2-(N-dicyclopropylmethyl-N-propylamino)-4-(2',4',6'-trichlorophenyl)-pyrimidine]
CCCN(c1ncc(C)c(-c2ccc(Cl)cc2)n1)C(C1CC1)C1CC1 [II-7]
CCCN(c1ncc(C)c(-c2ccc(Br)cc2)n1)C(C1CC1)C1CC1 [II-16, 2-(N-dicyclopropylmethyl-N-propylamino)-4-(4'-bromophenyl)-5-methylpyrimidine]
CCCN(c1nccc(-c2ccc(OC)cc2C)n1)C(C1CC1)C1CC1 [II-43]
CCCN(c1nc(N)nc(-c2c(Cl)cc(Cl)cc2Cl)n1)C(C1CC1)C1CC1 [IV-2, 2-(2',4',6'-trichlorophenyl)-4-(N-dicyclopropylmethyl-N-propylamino)-6-aminotriazine]
CCCN(c1nccc(-c2c(C)cc(C)cc2C)n1)C(C1CC1)C1CC1 [II-24]
CCCN(c1ncc(C)c(-c2ccc(Cl)cc2OC)n1)C(C1CC1)C1CC1 [II-32]

From patent US5795905A, “CRF receptor antagonists and methods relating thereto” (Neurocrine Biosciences, Inc., priority 1995, dated 1998)
